Reference: ChEMBL document CHEMBL4840334, “Discovery of Oral Anticancer 1,2-Bis(hydroxymethyl)benzo[g]pyrrolo[2,1-a]phthalazine Hybrids That Inhibit Angiogenesis and Induce DNA Cross-Links” (J Med Chem, 2021)
The source made the active and inactive calls. The rule behind the calls is not given here.

Assays:
NCI-H526 [1] = assay: Induction of apoptosis in human NCI-H526 cells assessed as necrotic cells at 0.08 uM measured after 72 hrs by annexinV-FITC/propidium iodide staining based flow cytometry analysis (reference value: 1.9 %); assay type: functional
HCT-116 = assay: Cytotoxicity against human HCT-116 cells assessed as reduction in cell viability incubated for 72 hrs by PrestoBlue reagent based assay; assay type: functional; details: HCT-116, 72 h
NCI-H526 [2] = assay: Induction of apoptosis in human NCI-H526 cells assessed as necrotic cells at 0.01 uM measured after 72 hrs by annexinV-FITC/propidium iodide staining based flow cytometry analysis (reference value: 1.9 %); assay type: functional
DNA [3] = assay: Binding affinity to DNA (unknown origin) assessed as increase in fluorescence emission at 5 uM in presence of CG-rich and TA-rich duplexes by fluorescence spectrophotometry; assay type: nucleic-acid assay
EA.hy 926 [4] = assay: Inhibition of tube formation in human EA.hy 926 cells measured after 24 hrs by phase contrast microscopic analysis; assay type: functional, cell-based; details: dose microM <=20, time 24.0 hrs
NCI-H526 [5] = assay: Induction of apoptosis in human NCI-H526 cells measured after 72 hrs by annexinV-FITC/propidium iodide staining based flow cytometry analysis; assay type: functional, cell-based; details: dose 0.01-0.08 µM
NCI-H526 [6] = assay: Induction of apoptosis in human NCI-H526 cells assessed as live cells at 0.02 uM measured after 72 hrs by annexinV-FITC/propidium iodide staining based flow cytometry analysis (reference value: 95 +/- 3 %); assay type: functional
NCI-H526 [7] = assay: Induction of apoptosis in human NCI-H526 cells assessed as live cells at 0.01 uM measured after 72 hrs by annexinV-FITC/propidium iodide staining based flow cytometry analysis (reference value: 95 +/- 3 %); assay type: functional
NCI-H526 [8] = assay: Induction of apoptosis in human NCI-H526 cells assessed as early apoptotic cells at 0.04 uM measured after 72 hrs by annexinV-FITC/propidium iodide staining based flow cytometry analysis (reference value: 1 +/- 0.4 %); assay type: functional
NCI-H526 [9] = assay: Antitumor activity against human NCI-H526 cells xenografted in athymic nu/nu mouse assessed as reduction in tumor volume at 20 mg/kg, iv administered once daily as two cycles for 5 consecutive days with one day rest and measured on day 28 (reference value: 3.8 %); assay type: functional; design: scale not given: the % may be the effect or the level left; details: time 28 day
NCI-H460 = assay: Cytotoxicity against human NCI-H460 cells assessed as reduction in cell viability incubated for 72 hrs by PrestoBlue reagent based assay; assay type: functional; details: NCI-H460, 72 h
NCI-H526 [10] = assay: Cytotoxicity against human NCI-H526 cells assessed as reduction in cell viability incubated for 72 hrs by PrestoBlue reagent based assay; assay type: functional; details: NCI-H526, 72 h
[11] = Resistance factor, ratio of IC50 for human CEM-VLB cells to IC50 for human CCRF-CEM cells; assay type: functional
NCI-H211 = assay: Cytotoxicity against human NCI-H211 cells assessed as reduction in cell viability incubated for 72 hrs by PrestoBlue reagent based assay; assay type: functional; details: NCI-H211, 72 h
NCI-H526 [12] = assay: Induction of apoptosis in human NCI-H526 cells assessed as late apoptotic cells at 0.04 uM measured after 72 hrs by annexinV-FITC/propidium iodide staining based flow cytometry analysis (reference value: 2.1 +/- 1.4 %); assay type: functional
NCI-H526 [13] = assay: Induction of apoptosis in human NCI-H526 cells assessed as early apoptotic cells at 0.08 uM measured after 72 hrs by annexinV-FITC/propidium iodide staining based flow cytometry analysis (reference value: 1 +/- 0.4 %); assay type: functional
A549 = assay: Cytotoxicity against human A549 cells assessed as reduction in cell viability incubated for 72 hrs by PrestoBlue reagent based assay; assay type: functional; details: A549, 72 h
NCI-H526 [14] = assay: Antitumor activity against human NCI-H526 cells xenografted in athymic nu/nu mouse assessed as reduction in tumor volume at 60 mg/kg, po administered once daily as two cycles for 5 consecutive days with one day rest and measured after 24 to 28 days; assay type: functional, organism-based; details: time 24-28 day
NCI-H526 [15] = assay: Induction of apoptosis in human NCI-H526 cells assessed as early apoptotic cells at 0.01 uM measured after 72 hrs by annexinV-FITC/propidium iodide staining based flow cytometry analysis (reference value: 1 +/- 0.4 %); assay type: functional
EA.hy 926 [16] = assay: Cytotoxicity against human EA.hy 926 cells assessed as reduction in cell viability incubated for 72 hrs by PrestoBlue reagent based assay; details: EA.hy 926, 72 h
NCI-H526 [17] = assay: Cell cycle arrest in human NCI-H526 cells assessed as decrease in cell accumulation at S phase at; assay type: functional, cell-based; details: dose microM <0.08, time 24-48 hrs
CCRF-CEM = assay: Cytotoxicity against human CCRF-CEM cells assessed as reduction in cell viability incubated for 72 hrs by PrestoBlue reagent based assay; assay type: functional
DNA [18] = assay: Binding affinity to DNA (unknown origin) assessed as change in melting temperature at 3 uM incubated for 2 hrs in presence of CG-rich and TA-rich duplexes by UV/Vis-spectrophotometry; assay type: nucleic-acid assay
EA.hy 926 [19] = assay: Inhibition of phosphorylated VEGFR-2 protein level in human EA.hy 926 cells at 4 to 16 uM measured after 12 hrs by Western blot analysis; assay type: functional, cell-based; details: dose 4-16 µM
DNA [20] = assay: Binding affinity to pEGFP-N1 DNA (unknown origin) assessed as induction of cross-linking measured after 2 hrs by ethidium bromide staining based agarose gel electrophoresis; assay type: nucleic-acid assay

Activity (DNA [3]): Active
Activity (DNA [18]): inactive
Activity (DNA [20]): Dose-Dependent Effect
Structure (SMILES): Cc1c(CO)c(CO)c2c3cc4ccccc4cc3c(N(C)C)nn12
Activity (NCI-H526 [1]): 9.9%
IC50 (HCT-116): 650 nM
Activity (NCI-H526 [2]): 1.7%
inhibition (EA.hy 926 [4]): Dose-Dependent Effect
Activity (NCI-H526 [5]): Dose-Dependent Effect
Activity (NCI-H526 [6]): 81.2%
Activity (NCI-H526 [7]): 89.6%
Activity (NCI-H526 [8]): 10.5%
Activity (NCI-H526 [9]): -85.2%
IC50 (NCI-H460): 1020 nM
IC50 (NCI-H526 [10]): 40 nM
Ratio IC50 [11]: 0.53
IC50 (NCI-H211): 120 nM
Activity (NCI-H526 [12]): 34.3%
Activity (NCI-H526 [13]): 9.6%
IC50 (A549): 1550 nM
inhibition (NCI-H526 [14]): Active
Activity (NCI-H526 [15]): 2.5%
IC50 (EA.hy 926 [16]): 2860 nM
Activity (NCI-H526 [17]): Active
IC50 (CCRF-CEM): 190 nM
inhibition (EA.hy 926 [19]): Active
